In patent publication US20120277209A1, “PYRAZINE COMPOUNDS AS PHOSPHODIESTERASE 10 INHIBITORS” (Amgen Inc., priority 2009, published 2012) one finds IC50 data, which are given here for 51 molecules.

Where only a bound is given, the exact number is not on record here.

One assay addresses PDE10 (UniProt Q9Y233). Nature of the assay: PDE10 enzyme inhibition, IMAP TR-FRET assay (MPDE10A7 Enzyme Activity and Inhibition). Type of assay: biochemical. The following applies: IC50 class against PDE10; read-out: IC50. A digest of the protocol:
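PDE10A enzyme or tissue homogenate preincubated with compounds 30 min at room temperature, then fluorescein-labelled cAMP or cGMP added for 60 min. IMAP binding reagent stop, TR-FRET read. Values are mean IC50s, grouped into five potency classes.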
In general terms: In TR-FRET formats the signal depends on donor and acceptor labels being close together.
A word on the IC50: it is the point on the concentration scale where inhibition reaches its midpoint. In the case of `NC(=O)C1CCN(c2nccnc2Oc2ccc(Nc3nc4ccccc4s3)cc2)CC1` [Example 81, 1-(3-(4-(benzo[d]thiazol-2-ylamino)phenoxy)pyrazin-2-yl)piperidine-4-carboxamide], the IC50 was below 25 nM.

Turning to `COCC1CCN(c2nccnc2Oc2ccc(Nc3nc4ccccc4s3)cc2)CC1` [Example 87, N-(4-(3-(4-(methoxymethyl)-piperidin-1-yl)pyrazin-2-yl-oxy)phenyl)benzo[d]thiazol-2-amine], the IC50 lay within 25 to 100 nM.

Regarding `COc1ncccc1-c1nccnc1Oc1ccc(C(O)c2nc3ccccc3[nH]2)cc1` (stereo not drawn) [Example 229, (1H-BENZO[D]IMIDAZOL-2-YL)(4-(3-(2-METHOXYPYRIDIN-3-YL)PYRAZIN-2-YLOXY)PHENYL)METHANOL], the IC50 is below 25 nM.

Consider `O=C(c1ccc(Oc2nccnc2OCCN2CCCC2)cc1)c1nc2ccccc2[nH]1` [Example 173, (1H-benzo[d]imidazol-2-yl)(4-(3-(2-(pyrrolidin-1-yl)ethoxy)pyrazin-2-yloxy)phenyl)methanone], for which the IC50 was 100 to 250 nM.

As to `COc1cncc(-c2nccnc2Oc2ccc(Nc3nc4ccccc4s3)cc2)c1` [Example 156, N-(4-(3-(5-methoxypyridin-3-yl)pyrazin-2-yloxy)phenyl)benzo[d]thiazol-2-amine], the IC50 is 25 to 100 nM.

With `O=C(c1ccc(Oc2nccnc2-c2cccc3ncccc23)cc1)c1nc2ccccc2[nH]1` [Example 130, (1H-benzo[d]imidazol-2-yl)(4-(3-(quinolin-5-yl)pyrazin-2-yloxy)phenyl)methanone], the IC50 was in the range of 25 to 100 nM.

On to `Fc1ccc2sc(Nc3ccc(Oc4cnccn4)cc3)nc2c1` [Example 219, 5-fluoro-N-(4-(pyrazin-2-yloxy)phenyl)benzo[d]thiazol-2-amine], for which the IC50 lay in the range of 1000 to 5000 nM.

For `O=C(c1ccc(Oc2nccnc2OCc2ccccn2)cc1)c1nc2ccccc2[nH]1` [Example 166, (1H-benzo[d]imidazol-2-yl)(4-(3-(pyridin-2-ylmethoxy)pyrazin-2-yloxy)phenyl)methanone], the IC50 fell in the range of 25 to 100 nM.

With `C[C@]1(O)CC[C@@H](c2nccnc2Oc2ccc(C(=O)c3nc4ccccc4[nH]3)cc2)CC1` [Example 196, (1H-benzo[d]imidazol-2-yl)(4-(3-((1S,4S)-4-hydroxy-4-methylcyclohexyl)pyrazin-2-yloxy)phenyl)methanone], the IC50 was below 25 nM.

In the case of `O=C(c1ccc(Oc2nccnc2-c2ccnc3ccccc23)cc1)c1nc2ccccc2[nH]1` [Example 129, (1H-benzo[d]imidazol-2-yl)(4-(3-(quinolin-4-yl)pyrazin-2-yloxy)phenyl)methanone], the IC50 is 25 to 100 nM.

With `CC1CN(c2nccnc2Oc2ccc(Nc3nc4ccccc4s3)cc2)CC(=O)N1` (racemic) [Example 94, 4-(3-(4-(benzo[d]thiazol-2-ylamino)phenoxy)pyrazin-2-yl)-6-methylpiperazin-2-one], the IC50 was below 25 nM.

On to `O=C(c1ccc(Oc2nccnc2C2=CCOCC2)cc1)c1nc2ncccc2[nH]1` [Example 131, (4-(3-(3,6-dihydro-2H-pyran-4-yl)pyrazin-2-yloxy)phenyl)(1H-imidazo[4,5-b]pyridin-2-yl)methanone], for which the IC50 lay in the range of 25 to 100 nM.

Turning to `Fc1cc(-c2nccnc2Oc2ccc(Nc3nc4ccccc4s3)c(F)c2)ccn1` [Example 158, N-(2-fluoro-4-(3-(2-fluoropyridin-4-yl)pyrazin-2-yloxy)phenyl)benzo[d]thiazol-2-amine], the IC50 fell in the range of 25 to 100 nM.

As to `CC(=O)N1CCCC(c2nccnc2Oc2ccc(C(=O)c3nc4ccccc4[nH]3)cc2)C1` (racemic) [Example 251, 1-(3-(3-(4-(1H-benzo[d]imidazole-2-carbonyl)phenoxy)pyrazin-2-yl)piperidin-1-yl)ethanone 2,2,2-trifluoroacetate], the IC50 was below 25 nM.

As to `COc1nc2ccccc2cc1-c1nccnc1Oc1ccc(C(=O)c2nc3ccccc3[nH]2)cc1` [Example 115, (1H-benzo[d]imidazol-2-yl)(4-(3-(2-methoxyquinolin-3-yl)pyrazin-2-yloxy)phenyl)methanone], the IC50 is below 25 nM.

`CC(C)(O)[C@@H]1CCCN1c1nccnc1Oc1ccc(Nc2nc3ccccc3s2)cc1` [Example 59, (S)-2-(1-(3-(4-(BENZO[D]THIAZOL-2-YLAMINO)PHENOXY)PYRAZIN-2-YL)PYRROLIDIN-2-YL)PROPAN-2-OL]: the IC50 is below 25 nM.

As for `OC[C@@H]1CCN(c2nccnc2Oc2ccc(Nc3nc4ccccc4s3)cc2)C1` [Example 85, (R)-(1-(3-(4-(benzo[d]thiazol-2-ylamino)phenoxy)pyrazin-2-yl)pyrrolidin-3-yl)methanol], the IC50 is below 25 nM.

Turning to `COCC1CCCN(c2nccnc2Oc2ccc(Nc3nc4ccccc4s3)cc2)C1` (stereo not drawn) [Example 98, N-(4-(3-(3-(methoxymethyl)-piperidin-1-yl)pyrazin-2-yloxy)-phenyl)benzo[d]thiazol-2-amine], the concentration for half-maximal inhibition (IC50) was 25 to 100 nM.

On to `c1ccc2sc(Nc3ccc(Oc4nccnc4-c4cnc5[nH]ccc5c4)cc3)nc2c1` [Example 141, N-(4-(3-(1H-pyrrolo[2,3-b]pyridin-5-yl)pyrazin-2-yloxy)phenyl)benzo[d]thiazol-2-amine], for which the IC50 lay in the range of 25 to 100 nM.

For the molecule `CC(=O)N1CCC(c2nccnc2Oc2ccc(C(O)c3nc4ccccc4[nH]3)cc2)CC1` (stereo not drawn) [Example 228, 1-(4-(3-(4-((1H-benzo[d]imidazol-2-yl)(hydroxy)methyl)phenoxy)pyrazin-2-yl)piperidin-1-yl)ethanone], the IC50 was below 25 nM.

Staying with this assay, now noted: PDE10 enzyme inhibition; average IC50 data for each compound; read-out: Average IC50.
`COc1ncccc1-c1nccnc1Oc1ccc(C(=O)c2nc3ccccc3n2C)cc1` [drawing 896]: the IC50 came to 0.594 nM.

`CC(=O)N1CCC(c2nccnc2Oc2ccc(Nc3nc4ccccc4s3)nc2)CC1` [drawing 992]: the IC50 came to 0.59 nM.

As for `O=C(c1ccc(Oc2nccnc2OCCN2CCOCC2)cc1)c1nc2ccccc2[nH]1` [drawing 855], the IC50 was determined as 89.5 nM.

Take `N#CC1(c2nccnc2Oc2ccc(C(=O)c3nc4ccccc4[nH]3)cc2)CCOCC1` [drawing 868]: the IC50 was 2.5 nM.

Take `O=C(c1ccc(Oc2nccnc2C2CCOCC2)cc1)c1nc2ccc(F)cc2[nH]1` [drawing 987]: the IC50 worked out at 0.593 nM.

For `OC1(c2nccnc2Oc2ccc(Nc3nc4ccccc4s3)cc2)CCOCC1` [drawing 902], the IC50 stood at 0.902 nM.

Consider `O=C(c1ccc(Oc2nccnc2C(=O)NCCc2ccccn2)cc1)c1nc2ccccc2[nH]1` [drawing 795], for which the IC50 amounted to 8.08 nM.

Consider `Clc1nccnc1Oc1ccc(Nc2nc3ccccc3s2)cc1`, for which the IC50 was determined as 603 nM.

`CN1CCC(c2nccnc2Oc2ccc(C(=O)c3nc4ccccc4[nH]3)cc2)CC1=O` (stereo not drawn) [drawing 926]: the IC50 is 6.02 nM.

Consider `O=C(c1ccc(Oc2nccnc2[C@H]2CC[C@@H](O)CC2)cc1)c1nc2ccccc2[nH]1` [drawing 797], for which the IC50 turned out to be 1.04 nM.

Take `Cc1ncccc1-c1nccnc1Oc1ccc(C(=O)c2nc3ccccc3n2C)cc1` [drawing 957]: the IC50 is 8.78 nM.

Consider `COCC(=O)N1CCC(c2nccnc2Oc2ccc(C(=O)c3nc4ccccc4[nH]3)cc2)CC1` [drawing 945], for which the IC50 stood at 0.0365 nM.

Consider `Fc1ccc2sc(Nc3ccc(Oc4nccnc4C4CCOCC4)cc3)nc2c1` [drawing 881], for which the IC50 worked out at 11.8 nM.

As for `C[C@]1(O)CC[C@H](c2nccnc2Oc2ccc(C(=O)c3nc4ccccc4[nH]3)cc2)CC1` [drawing 922], the IC50 was 0.748 nM.

Regarding `CN(C)CCOc1nccnc1Oc1ccc(C(=O)c2nc3ccccc3[nH]2)cc1` [drawing 857], the IC50 is 486 nM.

Consider `O=C(c1ccc(Oc2nccnc2N2CCOCC2)cc1)c1nc2ncccc2[nH]1`, for which the IC50 is 11.6 nM.

As for `CC(=O)N1CC[C@@H](c2nccnc2Oc2ccc(Nc3nc4ccccc4s3)cc2)C1` (stereo in doubt), the IC50 came out at 1.82 nM.

Turning to `COC(=O)C1(c2nccnc2Oc2ccc(Nc3nc4ccccc4s3)cc2)CCOCC1` [drawing 871], the IC50 was found to be 6.28 nM.

As to `COC(=O)N1CCC(c2nccnc2Oc2ccc(C(=O)c3nc4ccccc4[nH]3)cc2)CC1` [drawing 971], the IC50 was determined as 0.0615 nM.

On to `O=C(c1ccc(Oc2nccnc2-c2ccncc2)cc1)c1nc2ccccc2[nH]1` [drawing 755], for which the IC50 amounted to 7.5 nM.

For `COc1cccc(-c2nccnc2Oc2ccc(C(=O)c3nc4ccccc4[nH]3)cc2)c1` [drawing 759], the IC50 came to 36 nM.

Consider `CCCOc1nccnc1Oc1ccc(C(=O)c2nc3ccccc3[nH]2)cc1` [drawing 905], for which the IC50 amounted to 25.2 nM.

For `COCCOc1nccnc1Oc1ccc(C(=O)c2nc3ccccc3[nH]2)cc1` [drawing 848], the IC50 is 29.1 nM.

Regarding `CC1(C)C=C(c2nccnc2Oc2ccc(C(=O)c3nc4ccccc4[nH]3)cc2)C(=O)CC1` [drawing 916], the IC50 was 166 nM.

Consider `O=C(c1ccc(Oc2nccnc2N2CCC(CCO)CC2)cc1)c1nc2ccccc2[nH]1`, for which the IC50 worked out at 4 nM.

As to `O=C(c1ccc(Oc2nccnc2C(=O)O)cc1)c1nc2ccccc2[nH]1`, the IC50 amounted to 556 nM.

Turning to `N#CCC(=O)N1CCC(c2nccnc2Oc2ccc(C(=O)c3nc4ccccc4[nH]3)cc2)CC1` [drawing 997], the 50% inhibitory concentration (IC50) is 0.025 nM.

With `[2H]C([2H])([2H])C(=O)N1CCC(c2nccnc2Oc2ccc(C(=O)c3nc4ccccc4[nH]3)cc2)CC1` [drawing 993], the IC50 was found to be 0.105 nM.

Staying with this assay, now noted: PDE10 enzyme inhibition; chiral compounds separated from racemic mixtures; read-out: IC50.
For `N#C[C@@H]1CCN(c2nccnc2Oc2ccc(C(=O)c3nc4ccccc4[nH]3)cc2)C1` [Example 261, (R)-1-(3-(4-(1H-benzo[d]imidazole-2-carbonyl)phenoxy)pyrazin-2-yl)pyrrolidine-3-carbonitrile], the IC50 was below 25 nM.

`O=C1CCC[C@@H](c2nccnc2Oc2ccc(Nc3nc4ccccc4s3)cc2)C1` [Example 281, (R)-3-(3-(4-(benzo[d]thiazol-2-ylamino)phenoxy)pyrazin-2-yl)cyclohexanone]: the IC50 was below 25 nM.

For the molecule `C[C@@H]1CN(c2nccnc2Oc2ccc(Nc3nc4ccccc4s3)cc2)CC(=O)N1` [Example 267, (R)-4-(3-(4-(benzo[d]thiazol-2-ylamino)phenoxy)pyrazin-2-yl)-6-methylpiperazin-2-one], the IC50 was below 25 nM.
